Source: patent US20220064204A1, “AMORPHOUS FORM OF 5-BROMOPYRIDIN-3-YL 3-DEOXY-3-[4-(3,4,5-TRIFLUOROPHENYL)-1H-1,2,3-TRIAZOL-1-YL]-1-THIO-ALPHA-D-GALACTOPYRANOSIDE” (GALECTO BIOTECH AB, priority 2018, published 2022)
Read-outs that look alike come from different tables or passages of the source.

Experiments:
[1] = First in human study, safety and tolerability, single and multiple ascending doses; format: in vivo; conditions: oral
Method: The compound of formula I is tested in a Phase 1, randomized, double-blind, placebo-controlled, first-in-human study in which the safety, tolerability, and pharmacokinetics of orally administered compound of formula I is evaluated in healthy adult subjects and adult subjects with indication of suspected Nonalcoholic steatohepatitis (NASH) and liver fibrosis.
This study aims to obtain safety, tolerability and pharmacokinetic data when the compound of formula I is administered orally as single doses and as multiple doses to healthy subjects. In addition, an optional part has been included to obtain safety and tolerability data when the compound of formula I is administered orally as multiple doses to subjects with suspected Nonalcoholic steatohepatitis (NASH) and liver fibrosis.

[2] = Phase 1 first-in-human study, single oral dose pharmacokinetics in healthy subjects (drug layered formulation capsules); format: in vivo; conditions: plasma; for half-life / AUC(0-t) / Tmax / AUC(0-inf): human; for half-life / AUC(0-t) / Tmax: po; for half-life / AUC(0-t) / AUC(0-inf): geometric mean; for AUC(0-t): read-out: AUC0-24; for Tmax / Tlog: median
Method: The first part of this study aims to obtain safety, tolerability and pharmacokinetic data when the compound of formula I is administered orally as a single dose in healthy subjects using the above drug layered formulation.
Experimental Data from Healthy Subject Cohort A1: 5 mg Compound of Formula I (API)
6 healthy subjects received 5 mg of compound of formula I capsules orally as a single dose in the fasted state, and 2 subjects receive placebo. The first 2 subjects (1 active and 1 placebo) were dosed 24 hours before the remaining subjects. Blood samples for pharmacokinetic analysis of plasma API concentrations were obtained by venipuncture before dosing, and then at 0.5, 1, 1.5, 2, 3, 4, 6, 8, 12, 16, 24, 36, and 48 hours post dose. […]
Experimental Data from Healthy Subject Cohort A3 Fasted: 50 mg Compound of Formula I (API)
(§1) 6 healthy subjects received 50 mg of compound of formula I capsules orally as a single dose in the fasted state, and 2 subjects receive placebo. The first 2 subjects (1 active and 1 placebo) were dosed 24 hours before the remaining subjects. Blood samples for pharmacokinetic analysis of plasma API concentrations were obtained by venipuncture before dosing, and then at 0.5, 1, 1.5, 2, 3, 4, 6, 8, 12, 16, 24, 36, and 48 hours post dose.
Experimental Data from Healthy Subject Cohort A3 Fed: 50 mg Compound of Formula I (API)
as §1, with “fed” for “fasted”, “dose. […]” for “dose.”
Experimental Data from Healthy Subject Cohort A5: 100 mg Compound of Formula I (API)
as §1, with “100” for “50”
Experimental Data from Healthy Subject Cohort A6: 200 mg Compound of Formula I (API)
as §1, with “200” for “50”
Experimental Data from Healthy Subject Cohort A7: 400 mg Compound of Formula I (API)
as §1, with “400” for “50”

[3] = Solubility of the crystalline compound (statement); format: physicochemical; conditions: highly crystalline compound
[4] = Dissolution of filled capsules / pellets in biorelevant media (FaSSIF); format: physicochemical; conditions: 18 hours
Method: As an alternative to poloxamer 188, the surfactant SLS was also evaluated to aid in the dispersion of the SDD.
The resulting drug layered pellets were analysed by UV-HPLC to determine the drug loading as well as by SEM, XRPD and Dissolution in biorelevant media.
The dissolution profile of the drug-layered pellets was compared to the dissolution profiles of the API alone as well an ASD formulation (physical mixture of SDD (API:HPMC603=1:2) and poloxamer 188) (see FIG. 4).

[5] = Material characterization by TGA and dynamic vapor sorption (DVS); format: physicochemical; conditions: crystalline compound
[6] = Phase 1 study, multiple oral dose (twice a day for 10 days) pharmacokinetics in healthy subjects; format: in vivo, human; conditions: fasted state; for half-life: po
Method: The second part of this study aims to obtain safety, tolerability and pharmacokinetic data when the compound of formula I is administered orally dosed twice a day for 10 days in healthy subjects using the above drug layered formulation.
Experimental Data from Healthy Subject Cohort B1: 50 mg Compound of Formula I (API)
(§2) 8 healthy subjects received 50 mg of compound of formula I capsules and 3 subjects receive placebo orally twice a day for 10 days. Blood samples for pharmacokinetic analysis of plasma API concentrations were obtained by venipuncture before dosing on day 1, and then at 0.5, 1, 1.5, 2, 3, 4, 6, 8, 12, 16, 24, 36, and 48 hours post dose. Blood sampling was repeated on day 10.
Experimental Data from Healthy Subject Cohort B2: 100 mg Compound of Formula I
as §2, with “received 100” for “received 50”, “16, 24” for “16, 24, 36, and 48”, “repeated at” for “repeated on”

[7] = 5 mg, single oral dose 5 mg, fasted state
[8] = 20 mg, single oral dose 20 mg, fasted state
[9] = 50 mg, single oral dose 50 mg (1 × 50 mg), fasted state
[10] = 50 mg, single oral dose 50 mg (1 × 50 mg), fed state
[11] = 100 mg, single oral dose 100 mg, fasted state
[12] = 200 mg, single oral dose 200 mg, fasted state
[13] = 400 mg, single oral dose 400 mg, fasted state
[14] = single oral dose 100 mg, fasted state
[15] = single oral dose 200 mg, fasted state
[16] = single oral dose 400 mg, fasted state
[17] = 50 mg BID oral, Day 10, healthy subjects, geometric mean
[18] = 100 mg BID oral, Day 10, healthy subjects, geometric mean

With OC[C@H]1O[C@H](Sc2cncc(Br)c2)[C@H](O)[C@@H](n2cc(-c3cc(F)c(F)c(F)c3)nn2)[C@H]1O [GB1211, 5-Bromopyridin-3-yl 3-deoxy-3-[4-(3,4,5-trifluorophenyl)-1H-1,2,3-triazol-1-yl]-1-thio-α-D-galactopyranoside] the “safety and tolerability in man” value [1] was “safe and well tolerated”, the half-life [2, 7] was 11.2 h and the AUC(0-t) [2, 7] was 585 ng·h/mL. For the same compound, the Tmax [2, 7] was 2 h, the half-life [2, 8] was 12.4 h and the AUC(0-t) [2, 8] was 2670 ng·h/mL. For the same compound, the half-life [2, 9] was 12.6 h, the AUC(0-t) [2, 9] was 3400 ng·h/mL and the Tmax [2, 9] was 3 h. For the same compound, the half-life [2, 10] was 12.8 h, the AUC(0-t) [2, 10] was 3820 ng·h/mL and the Tmax [2, 10] was 5 h. The AUC(0-t) ([2]; 50 mg, single oral dose 50 mg (10 × 5 mg), fasted state) was 5770 ng·h/mL, the half-life [2, 11] was 12.1 h and the AUC(0-t) [2, 11] was 4900 ng·h/mL. It also gave a Tmax [2, 11] of 3.5 h, a half-life [2, 12] of 15.1 h and an AUC(0-t) [2, 12] of 9050 ng·h/mL. For the same compound, the Tmax [2, 12] was 3.5 h, the half-life [2, 13] was 14.5 h and the AUC(0-t) [2, 13] was 15100 ng·h/mL. For the same compound, the Tmax [2, 13] was 4 h, the AUC(0-inf) [2, 14] was 6360 ng·h/mL and the AUC(0-inf) [2, 15] was 13100 ng·h/mL. For the same compound, the AUC(0-inf) [2, 16] was 21500 ng·h/mL, the Tlog ([2]; single oral dose 5 mg, fasted state) was 0.00 h and the Tlog ([2]; single oral dose 20 mg, fasted state) was 0.00 h. The Tlog ([2]; single oral dose 50 mg (1 × 50 mg), fasted state) was 0.00 h, the Tlog ([2]; single oral dose 50 mg (1 × 50 mg), fed state) was 0.75 h and the Tlog ([2]; single oral dose 50 mg (10 × 5 mg), fasted state) was 0.00 h. It also gave a Tlog [2, 14] of 0.00 h, a Tlog [2, 15] of 0.00 h and a Tlog [2, 16] of 0.00 h. The solubility [3] was “relatively low solubility”, the “API released in the dissolution media” value ([4]; FaSSIF) was “less than 12%” and the “API concentration in FaSSIF” value ([4]; dissolution) was 0.011 mg/mL. For the same compound, the hydrate formation ([5]; DVS) was “no indication of hydrate formation”, the hygroscopicity ([5]; dynamic vapor sorption (DVS)) was “not hygroscopic” and the Cmin [6, 17] was 249 ng/mL. For the same compound, the RAAUC [6, 17] was 2.31, the Cmin [6, 18] was 338 ng/mL and the RAAUC [6, 18] was 2.11. The half-life ([6]; human, plasma, 50 mg, 50 mg BID oral, Day 1, geometric mean, unreliable due to short sampling duration 0-12 hours, exploratory) was 7.34 h, the half-life ([6]; human, plasma, 50 mg, 50 mg BID oral, Day 10, healthy subjects, geometric mean) was 20.2 h and the half-life ([6]; human, plasma, 100 mg, 100 mg BID oral, Day 1, geometric mean, unreliable due to short sampling duration 0-12 hours, exploratory) was 7.04 h. For the same compound, the half-life ([6]; human, plasma, 100 mg, 100 mg BID oral, Day 10, healthy subjects, geometric mean) was 12.5 h and the Cmax ([6]; human, plasma, 50 mg BID oral, Day 1, healthy subjects, geometric mean) was 330 ng/mL.
